This note sets out measurements from patent US11932645B2, “Substituted pyrazolo[1,5-a]pyrimidines and their use in the treatment of medical disorders” (Bial—R&D Investments, S.A., priority 2014, dated 2024).

For data set [1], the target named is T1, glucocerebrosidase (Gcase) (Homo sapiens, UniProt P04062).
T1 sequence (P04062 40-536): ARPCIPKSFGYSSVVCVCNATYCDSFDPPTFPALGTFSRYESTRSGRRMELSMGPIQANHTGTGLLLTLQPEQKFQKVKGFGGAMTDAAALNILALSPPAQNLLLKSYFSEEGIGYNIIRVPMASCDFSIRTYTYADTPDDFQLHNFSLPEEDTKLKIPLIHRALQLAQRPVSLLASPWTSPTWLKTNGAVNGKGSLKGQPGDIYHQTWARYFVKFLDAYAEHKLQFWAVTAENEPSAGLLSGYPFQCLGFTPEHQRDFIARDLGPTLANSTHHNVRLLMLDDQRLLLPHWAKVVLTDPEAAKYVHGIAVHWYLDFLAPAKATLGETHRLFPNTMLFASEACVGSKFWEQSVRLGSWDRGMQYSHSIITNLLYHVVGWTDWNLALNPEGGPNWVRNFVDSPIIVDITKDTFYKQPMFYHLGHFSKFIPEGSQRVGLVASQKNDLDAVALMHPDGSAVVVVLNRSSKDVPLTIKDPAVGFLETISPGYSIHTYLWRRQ
The data set can be described thus: Glucocerebrosidase (Gcase) activation assay, 4-methylumbelliferyl-beta-D-glucopyranoside substrate, with saposin C. Type of data set: biochemical. The conditions noted are these: 10 nM GCase, 100 nM saposin C, pH 4.7. The method, then:
The ability of exemplary compounds to activate glucocerebrosidase (Gcase) was measured.
A 484 μL aliquot of a 1.0 mg/mL solution of phosphatidylserine (PS) (Sigma P7769) in chloroform was evaporated under a stream of nitrogen for 1 hour. The lipid film was dissolved over 4 minutes of vigorous vortexing in 40 mL of 176 mM K2HPO4/50 mM citric acid (pH 4.7) containing 7.5 μL of triton X-100, resulting in a mixed micellar preparation with a composition of 0.32 mM triton and 0.37 mol % PS. 4-Methylumbelliferyl-beta-D-glucopyranoside (ACROS-337025000) was dissolved in the micellar solution to a final concentration of 2 mM for use as the reaction substrate.
Test compounds were diluted to the desired concentrations with dimethylsulfoxide (DMSO) from 10 mM stocks, and 0.41 μL of the DMSO compound mixture was added to 100 μL of micellar solution containing 10 nM GCase and 100 nM saposin C (Enzo ALX-201-262-C050). Pre-incubation was allowed to occur for 30 minutes at room temperature, after which the reaction was initiated by combining 25 μL of substrate solution with 25 μL of compound/GCase/saposin mixture. The reaction proceeded for 15 minutes at room temperature and was stopped by adding 150 μL of 1M glycine, pH 12.5. The endpoint of the reaction was monitored by measuring fluorescence intensity (excitation: 365 nm; emission: 440 nm) on a SpectraMax i3 instrument (Molecular Devices). Test compounds were screened at 1.0 and 0.1 μM final concentration, and subsequent 8-point dose response curves were obtained using 3-fold dilutions from a maximum final concentration of 5 μM.
For experiments in which the test compound was used at a concentration of 1.0 μM, the symbol “+” indicates less than 30% Gcase activation; the symbol “++” indicates Gcase activation in the range of 30% up to 60%; and the symbol “+++” indicates Gcase activation greater than 60%. For experiments in which the test compound was used at a concentration of 0.1 μM, the symbol “*” indicates less than 10% Gcase activation; the symbol “**” indicates Gcase activation in the range of 10% up to 20%; and the symbol “***” indicates greater than 20% Gcase activation.

Data set [2] is described as follows: Compound solubility in water. Type of data set: physicochemical.

For `Cc1cc(C)n2ncc(C(=O)Nc3ccc(-c4ccc[nH]4)cc3)c2n1` [III-57], in data set [1], the “Percent Gcase Activation 0.1 μM Test Compound” value is reported as “** (Gcase activation in the range of 10% up to 20%)” and the “Percent Gcase Activation 1 μM Test Compound” value was “+ (less than 30% Gcase activation)”. For the same compound, the “Compound Solubility in Water” value in data set [2] is <1.5 µg/mL.
For `Cc1cc(C)n2ncc(C(=O)NC(C)(C)c3ccc(Cl)cc3)c2n1` [III-67], in data set [1], the “Percent Gcase Activation 0.1 μM Test Compound” value is “** (Gcase activation in the range of 10% up to 20%)” and the “Percent Gcase Activation 1 μM Test Compound” value is reported as “+++ (Gcase activation greater than 60%)”.
The like results for `Cc1cc(Cl)n2ncc(C(=O)NC(C)(C)c3ccc(Cl)cc3)c2n1` [III-68] were, in that order, “** (Gcase activation in the range of 10% up to 20%)” and “+++ (Gcase activation greater than 60%)”.
The like results for `Cc1cc(Cl)nc2c(C(=O)NC(C)(C)c3ccc(Cl)cc3)cnn12` [III-69] were, in that order, “*** (greater than 20% Gcase activation)” and “+++ (Gcase activation greater than 60%)”.
The like results for `Cc1cc(C)n2ncc(C(=O)NC(C)(C)c3ccc(F)cc3F)c2n1` [III-70] were, in that order, “** (Gcase activation in the range of 10% up to 20%)” and “+++ (Gcase activation greater than 60%)”.
Regarding `CO[C@H]1CC[C@H](C(C)(C)NC(=O)c2cnn3c(C)cc(C)nc23)CC1` [III-71], in data set [1], the “Percent Gcase Activation 0.1 μM Test Compound” value is “* (less than 10% Gcase activation)” and the “Percent Gcase Activation 1 μM Test Compound” value is “++ (Gcase activation in the range of 30% up to 60%)”.
The like results for `CO[C@H]1CC[C@@H](C(C)(C)NC(=O)c2cnn3c(C)cc(C)nc23)CC1` [III-72] were, in that order, “* (less than 10% Gcase activation)” and “+++ (Gcase activation greater than 60%)”.
Take `Cc1cc(C)n2ncc(C(=O)Nc3ccc4c(c3)C(C3=NCCN3)CCC4)c2n1` (stereo not drawn) [III-73]: in data set [1], the “Percent Gcase Activation 0.1 μM Test Compound” value is reported as “* (less than 10% Gcase activation)” and the “Percent Gcase Activation 1 μM Test Compound” value is on record as “+ (less than 30% Gcase activation)”.
The like results for `C#Cc1ccc(NCc2cnn3c(C)cc(C)cc23)cc1` [III-74] were, in that order, “* (less than 10% Gcase activation)” and “+ (less than 30% Gcase activation)”.
The like results for `Cc1cc(C)n2ncc(C(=O)Nc3ccc(Cl)c(C(C)Oc4cccnc4)c3)c2n1` (stereo not drawn) [III-75] were, in that order, “* (less than 10% Gcase activation)” and “+++ (Gcase activation greater than 60%)”.
In the case of `Cc1cc(C)n2ncc(C(=O)Nc3ccc(-c4ccc[nH]4)cc3)c2n1` [III-76], in data set [1], the “Percent Gcase Activation 0.1 μM Test Compound” value is “** (Gcase activation in the range of 10% up to 20%)” and the “Percent Gcase Activation 1 μM Test Compound” value is reported as “++ (Gcase activation in the range of 30% up to 60%)”. For the same compound, the “Compound Solubility in Water” value in data set [2] is 0.01 µg/mL.
For `C#Cc1ccc(NC(=O)c2cnn3c(C)cc(NC)nc23)cc1` [III-77], in data set [1], the “Percent Gcase Activation 0.1 μM Test Compound” value is recorded as “*** (greater than 20% Gcase activation)” and the “Percent Gcase Activation 1 μM Test Compound” value was “+++ (Gcase activation greater than 60%)”.
Turning to `C#Cc1ccc(NC(=O)c2cnn3c(NC)cc(C)nc23)cc1` [III-78], in data set [1], the “Percent Gcase Activation 0.1 μM Test Compound” value is listed as “** (Gcase activation in the range of 10% up to 20%)” and the “Percent Gcase Activation 1 μM Test Compound” value is “+ (less than 30% Gcase activation)”.
On to `Cc1cc(C)n2ncc(C(=O)NC3CCc4ccccc43)c2n1` (stereo not drawn) [III-79], for which, in data set [1], the “Percent Gcase Activation 0.1 μM Test Compound” value is recorded as “** (Gcase activation in the range of 10% up to 20%)”.
With `C#Cc1ccc(NC(=O)c2cnn3c(C)cc(C)nc23)cc1` [IV-1], in data set [1], the “Percent Gcase Activation 0.1 μM Test Compound” value is reported as “** (Gcase activation in the range of 10% up to 20%)” and the “Percent Gcase Activation 1 μM Test Compound” value was “++ (Gcase activation in the range of 30% up to 60%)”.
The corresponding values for `Cc1cc(C)n2ncc(C(=O)Nc3ccc(C#CCN(C)C)cc3)c2n1` [IV-2] are “* (less than 10% Gcase activation)” and “+ (less than 30% Gcase activation)”.
The corresponding values for `Cc1cc(C)n2ncc(C(=O)Nc3ccc(N4CCCCC4)cc3)c2n1` [IV-3] are “* (less than 10% Gcase activation)” and “+ (less than 30% Gcase activation)”.
The corresponding values for `Cc1cc(C)n2ncc(C(=O)Nc3ccc4c(c3)OCO4)c2n1` [IV-4] are “* (less than 10% Gcase activation)” and “++ (Gcase activation in the range of 30% up to 60%)”.
As for `Cc1cc(C)n2ncc(C(=O)Nc3ccc4c(c3)CCC4)c2n1` [IV-5], in data set [1], the “Percent Gcase Activation 0.1 μM Test Compound” value is “** (Gcase activation in the range of 10% up to 20%)” and the “Percent Gcase Activation 1 μM Test Compound” value is reported as “+++ (Gcase activation greater than 60%)”.
